In patent US20220009918A1, “Chemical Compounds” (GlaxoSmithKline Intellectual Property Development Limited, priority 2018, published 2022):
Entries after “also recorded” stand apart in the source; their conditions may differ.

Tested on: prostaglandin D2 generation following 48/80-induced mast cell degranulation
Test: In vivo mast cell activation: compound 48/80 challenge, peritoneal lavage PGD2 by LC/MS/MS
Set-up: species or system mouse
Settings: normal C57Bl6/N mice, oral 0.01-1.0 mg/kg ~1 hour prior to 48/80 (i.p.), lavage 7 minutes afterwards
Method: In Vivo Mast Cell Activation
Mice were randomized by body weight into 8 groups (n=8): Vehicle (0.5% HPML with 0.1% Tween80)+phosphate buffered saline (PBS), vehicle+compound 48/80 (0.75 mg/mL) and compound 48/80+Example 16 at various doses ranging from 0.01 mg/kg to 1.0 mg/kg.
C57BL mice were dosed orally with vehicle, or Example 16 at 0.01, 0.03, 0.1, 0.3, & 1.0 mg/kg. One hour later, blood samples were withdrawn via tail snip for measurement of drug levels, and mice were then terminally anesthetized with 2% isoflurane and given an intraperitoneal injection of 0.2 mL PBS or compound 48/80 solution (0.75 mg/mL, Sigma), followed by gentle massage of the abdomen. […]
Samples were thawed at room temperature and vortex-mixed. […] The plate was vortex-mixed for 30 seconds at 1000 rpm and analyzed by LC/MS/MS.
The analytical system consisted of a CTC HTS PAL autoinjector (Leap, Carrboro, N.C.), an Agilent 1290 Infinity binary pump and thermostated column compartment (Agilent Technologies, Santa Clara, Calif.) and an AB Sciex QTRAP 5500 mass spectrometer (AB Sciex, Framingham, Mass.). […] The analytes were detected by multiple reaction monitoring (MRM) in negative mode using Turbolon spray with the transitions of m/z 351/271 amu for PGD2/PGE2 and m/z 360/280 amu for PGD2-d9/PGE2-d9. Data were acquired, analyzed and quantified using Analyst software version 1.6.2 (AB Sciex, Framingham, Mass.). […]

CC1(C)C[C@H](NC(=O)c2cnc(-c3cc(F)cc(Cl)c3)s2)C(=O)N1 (single isomer, unassigned) [Example 16]
PGD2 generation in peritoneal lavage fluid following compound 48/80 challenge (FIG. 2): prevents 48/80-induced PGD2 generation; also recorded: Dose-Dependent Reduction in Peritoneal Lavage Fluid PGD2
